The values below come from PubChem BioAssay AID540258 (Broad Institute, 2011).

Activity calls are given as the source filed them.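 How the source made its calls: active means fitted curve reaching 40% activation at or below the top valid dose tested; inconclusive means flat curve at 30 to 70% activation, or poor fit; inactive means the rest.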

This assay relates to SK-MEL-5 TRPM1 promoter luciferase reporter, 24 h. The experiment in a line: MITF activators via TRPM1 promoter reporter, dose response, SK-MEL-5 cells, luciferase, cherry-pick samples (AID 540258).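 Further: potency for activators that raise TRPM1 promoter luciferase signal.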
As to `COc1ccc(Br)c(C(=O)Nc2nc3ccccc3[nH]2)c1`, the AC40 is 4.94 µM.
As to `COc1cccc(C(=O)Nc2ccc(NC(=O)C3CC3)cn2)c1`, the AC40 is 3.48 µM.
In the case of `COc1ccc(/C(N)=N/OC(=O)c2cccs2)cc1OC` it was 6.41 µM.
For `Cc1ccc(-n2nnc(-c3ccnc4ccccc34)n2)cc1`, the AC40 was 3.49 µM.
To `CCCC(=O)N/C(N)=N/c1nc2ccccc2o1` belongs 0.558 µM.
Consider `COc1ccc(-c2c(C)nc3c(-c4ccsc4)cnn3c2N)cc1`, for which the AC40 is 0.302 µM.
For `CCC(C)c1ccc(NC(=O)Nc2cccnc2)cc1` (stereo not given), the AC40 was 2.21 µM.
In the case of `O=C(O)c1ccccc1N/N=C/c1cc(Br)cc(Br)c1O` it was 4.58 µM; in that of `O=C(Cc1ccccc1F)Nc1ccc(SC(F)F)cc1`, 1.98 µM.
In the case of `c1ccc(CSCc2nc3ccccc3[nH]2)cc1` it was 6.65 µM.
To `Cc1cccc(NC(=O)c2onc3c2CCCC3)c1C` belongs 1.62 µM; to `Nc1c(C(=O)C2CC2)sc2nc3c(cc12)CCC3`, 1.92 µM.
As to `CCN=c1scc(-c2ccc(F)cc2)n1/N=C/c1ccccn1`, the AC40 was 0.798 µM.
Regarding `Cc1ccc(NC(=O)c2ccccc2Cl)c(Cl)c1`, the AC40 is 4.2 µM.
Consider `COc1ccc(NC(=O)CCCn2c(=O)oc3ccccc32)cc1Cl`, for which the AC40 was 3.94 µM.
In the case of `COc1ccc(C)c2sc(=NC(=O)c3ccc(C(C)=O)cc3)n(C)c12` it was 0.119 µM.
In the case of `CC(C)(C)c1csc(N/N=C/c2ccc(O)cc2)n1` it was 17.8 µM; in that of `O=C(Nc1ccc(NC(=O)c2ccccc2F)cc1)c1cccs1`, 4.26 µM; in that of `C=CCn1cccc(C(=O)Nc2ccc(Cl)cc2)c1=O`, > 11 µM (inactive).
Turning to `Cc1ccnc(NC(=O)c2ccc(S(=O)(=O)N3CCC(C)CC3)cc2)c1`, the AC40 is 7.76 µM.
In the case of `CC(=O)Nc1ccc2c(c1)ncn2-c1ccccc1` it was 2.76 µM.
Consider `CC(=O)c1cccc(OCc2cc(C(=O)N(C)Cc3cnccn3)no2)c1`, for which the AC40 was 9.27 µM.
To `CCCC(=O)Nc1nc(-c2ccccc2)ns1` belongs 4.23 µM.
To `c1csc(-c2nc(N3CCCCC3)no2)c1` belongs 1.44 µM.
For `O=C(NC1CC1)c1sc2cc(Cl)ccc2c1Cl`, the AC40 was 4.59 µM.
To `CCc1ccc(O)c(-c2cc(C(=O)Nc3cccnc3)[nH]n2)c1` belongs 2.44 µM; to `Fc1ccccc1CSc1nnc(-c2ccccc2)o1`, 0.935 µM; to `Cc1cc(C)c2nc(NCc3ccccc3O)sc2c1`, 19 µM.
In the case of `COc1cc(O)c2c(=O)cc(-c3ccccc3)oc2c1` it was 14.2 µM.
In the case of `COc1cccc(Nc2ccc(N3CCCCC3)cc2)c1OC` it was 1.48 µM.
`O=C(Nc1ccc(O)cc1)c1cc2ccccc2c(=O)s1`: the AC40 is 2.3 µM.
With `COC(=O)c1ccc2[nH]c(C3(O)CCCCC3)c(C)c2c1`, the AC40 is 10.3 µM.
To `Cc1nnc(NC(=O)c2ccc(N3CCCC3=O)cc2)s1` belongs > 35 µM (inactive); to `COc1ccc(-c2ccc(C(=O)C3CC3)cc2)cc1`, 0.775 µM; to `Cc1ccc2c(CN3CCC(C)CC3)cc(=O)oc2c1C`, 8.33 µM.
With `COc1cc(SC)ccc1C(=O)NCC1CCCCC1`, the AC40 is 14.4 µM.
In the case of `CN(C)C(CNC(=O)c1cc2ccccc2oc1=O)c1ccccc1` (stereo not given) it was 5.72 µM; in that of `COc1ccc(Oc2nnc(C)c3ccccc23)cc1`, 2.6 µM.
In the case of `c1ccc(CSCc2cn3ccsc3n2)cc1` it was 11.2 µM; in that of `Cc1ccc(C(=O)O/N=C(\N)c2ccc(Br)cc2)cc1`, 7.84 µM.
Consider `Cc1ccc(OC(=O)c2cccc(S(=O)(=O)N3CCCC3)c2)c(-n2nc3ccccc3n2)c1`, for which the AC40 was 1.41 µM.
As to `CC(=O)NCCC1CCCCN1C(=O)c1cc(COc2cc(C)ccc2C)on1` (stereo not given), the AC40 is 3.2 µM.
`Cc1ccc(-c2csc(C(C#N)=C3CCCC3)n2)cc1`: the AC40 is 2.84 µM.
As for `Cn1cc(Br)c(C(=O)N/N=C/c2cc3c(cc2Cl)OCO3)n1`, the AC40 is 9.65 µM.
With `O=C(Nc1ccc(C(F)(F)F)cc1)c1ccccc1`, the AC40 was 3.48 µM.
With `COc1ccccc1C(=O)NCC(=O)Nc1ccc2c(c1)CCC2`, the AC40 is 2.42 µM.
Consider `Cc1ccc(Sc2cnc3ccccc3n2)cc1`, for which the AC40 was 1.43 µM.
With `c1ccc2c(c1)CC/C2=N/Nc1nc2ccccc2[nH]1`, the AC40 is 0.86 µM.
To `O=C(O)c1ccc(-c2nc(-c3ccc(Cl)cc3)cs2)cc1` belongs 0.309 µM; to `Cn1c(SCc2ccccc2Cl)nc2ccccc21`, 0.794 µM; to `Clc1ccc(C#Cc2cccnc2)cc1`, 5.78 µM.
`COc1ccc2ccccc2c1/C=N/Nc1cccc(C(=O)O)c1`: the AC40 is 13.1 µM.
Turning to `COCc1nn2c(N)c(-c3ccccc3)cnc2c1-c1ccccc1`, the AC40 was 2.62 µM.
For `Nc1ccc(Oc2cc(N)cc(Oc3ccccc3)c2)cc1`, the AC40 is 4.99 µM.
To `COc1ccc2nc3ccccc3nc2c1` belongs 4.11 µM; to `CC1(C)CC(=O)c2c(O)cc(OCc3ccc(Br)cc3)cc2O1`, 1.33 µM.
Take `CC1(C)CN=c2s/c(=C\c3ccc(Cl)cc3)c(=O)n2C1`: the AC40 is 1.21 µM.
Consider `Cc1ccc(C(=O)Nc2cccc(O)c2)cc1S(=O)(=O)N1CCCCCC1`, for which the AC40 is 8.12 µM.
For the compound `CCN(CC)c1ccc(Nc2nc(-c3cccnc3)cs2)cc1`, the AC40 was 2.64 µM.
To `c1ccn(-c2ccc(-c3ccn[nH]3)cc2)c1` belongs 2.31 µM; to `C=CCN=C1S/C(=C\c2ccc(N(C)C)cc2)C(=O)N1CC=C`, 21.5 µM.
Take `CCN(CC)CC(=O)Nc1scc2c1c(=O)oc1ccccc12`: the AC40 is 6.27 µM.
For `c1ccc2c(Nc3nnc(-c4ccncc4)s3)cccc2c1`, the AC40 is 4.9 µM.
To `COc1ccc(-c2nnn(Cc3ccccc3F)n2)cc1` belongs 2.14 µM; to `COc1ccccc1N1CCN(C2=Nc3cccc4cccc2c34)CC1`, 3 µM; to `CCCCC(=O)Nc1sc2c(c1C#N)CC(C)(C)OC2`, 5.29 µM.
Regarding `COc1ccc(-n2nc(C(=O)NCC(=O)N3CCN(c4ccccc4)CC3)c3ccccc3c2=O)c(OC)c1`, the AC40 is 4.77 µM.
Regarding `COC(=O)Cn1c(C)nc2c(sc3nc(C)cc(C)c32)c1=O`, the AC40 is 2.35 µM.
Regarding `Cc1ccc(O)c(-n2nc3ccccc3n2)c1`, the AC40 was 1.21 µM.
`O=C(Nc1ccccc1)N1CCC(c2ccccc2)C1` (stereo not given): the AC40 is 1.8 µM.
As for `CCn1c(C(=O)NC2CCC(C)CC2)cc2sccc21` (stereo not given), the AC40 was 8.36 µM.
In the case of `CCCC(=O)c1ccc(N2CCCCCC2)c(F)c1` it was 3.36 µM; in that of `O=c1c2ccccc2oc2cc(-c3ccc4cc[nH]c4c3)ccc12`, 2.25 µM; in that of `CC1CCC(NC(=O)c2cc3ccccc3cc2O)CC1` (stereo not given), 2.64 µM.
To `O=C(N/N=C/c1ccsc1)c1ccc2c(c1)OCO2` belongs 3.33 µM; to `COc1ccc2c(c1)oc(=O)c1cc(OC)ccc12`, 3.88 µM; to `CCCc1cc(C(=O)Nc2ccc(C(=O)OC)cc2)cs1`, 16.2 µM.
To `CC1(C)CC(/C=C/c2ccccc2)=Nc2ccccc2N1` belongs 20.9 µM.
As to `CCN1CCN(c2ccc(NC(=O)c3cccc(F)c3)cc2Cl)CC1`, the AC40 was 3.08 µM.
To `CC1CCC(NC(=O)c2ccc(NS(=O)(=O)c3ccc4[nH]c(=O)[nH]c4c3)cc2)CC1` (stereo not given) belongs 25.1 µM.
